Here are results for one compound from patent US6924288B2, “Enantiomerically pure opioid diarylmethylpiperzine and methods of using same” (priority 2001, dated 2005).

One data set deals with T1, κ opioid receptor (Cavia porcellus, UniProt P41144).
T1 construct: tissue Pel-Freeze Biological Inc. (Rogers, Ark.); host or cells: guinea pig cerebellum membranes
Put plainly: Radioligand binding, [3H]U69593 competition, guinea pig cerebellum membranes. The note with it: read-out: Guinea Pig Brain Membrane K1 (nM) κ. As to the method:
(§1) Two stereoisomerically related racemic mixtures and inclusive enantiomers were evaluated for in vitro opioid receptor affinity in rat brain membranes (μ and δ opioid) and guinea pig cerebellum (κ opioid receptor). Membranes for radioligand binding were prepared from either rat whole brain or guinea pig cerebellum, supplied by Pel-Freeze Biological Inc. (Rogers, Ark.). Tissues were homogenized in 50 mM TRIS (Tris[hydrooxymethyl]aminomethane) buffer (pH 7.4) containing 50 ug/ml soybean trypsin inhibitor, 1 mM EDTA (Ethylenediaminetetraacetic acid), and 100 μM PMSF (Phenylmethylsulfonyl fluoride). The homogenized brain tissues were centrifuged at 500×g for 30 minutes (4° C.) to remove large debris. The supernatant was polytronically sonicated for 10 seconds (P.E. setting of 2, 4° C.). Sucrose solution was then added to a final concentration of 0.35 M using a 10 mM TRIS-Sucrose buffer (pH 7.4) and the brain membranes were then centrifuged at 40,000×g for 30 minutes (4° C.). The membrane pellets were then washed twice in 10 mM TRIS buffer (pH 7.4) containing 50 μg/ml soybean trypsin inhibitor, 1 mM EDTA, and 100 μM PMSF.
(§2) Radioligand binding assays were performed in 10 mM TRIS buffer (pH 7.4) containing 50 μg/ml soybean trypsin inhibitor, 1 mM EDTA, 5 mM MgCl2, and 100 μM PMSF. Tritium-labeled DAMGO (μ), Deltorphin II (δ), or U69593 (κ) purchased from New England Nuclear were used as ligands in competitive experiments (2-3×10^−10 M final concentrations) with non-specific binding defined by 0.5×10^−6 M Naloxone (purchased from SIGMA Chemical Co.). All binding assays were run at room temperature for 90 minutes and then terminated by rapid filtration on GF/C glass fiber filters (Whatman, Hillsboro, Oreg.) with 50 mM TRIS buffer (4° C., pH 7.4) employing a Brandel Semi-automatic Cell Harvester (Model M48, Brandel, Gaithersburg, Md.). The filters were washed twice with 50 mM TRIS buffer (4° C., pH 7.4) and the filters were placed in liquid scintillation cocktail and the bound radioactivity counted on a Beckman LS 6500 scintillation counter. The potency of the compounds in inhibiting the binding of radiolabelled DAMGO (μ), Deltorphin II (δ), or U69593 (κ) was determined from full concentration-effect curves. With the computer program Prism (GraphPad Software Inc., San Diego, Calif.) the IC50 values were determined using a one-site nonlinear regression analysis of the radioligand binding data. The IC50 values were then converted to Ki values using the Cheng-Prusoff equation. (Cheng Y and Prusoff W H (1973) Relationship between the inhibition constant (K1) and the concentration of inhibitor which causes 50 percent inhibition (I50) of a enzymatic reaction. Biochem Pharm 22:3099-3108.)

Data set [1] addresses T2, Mu receptor, mouse vas deferens (Mus musculus, UniProt P42866).
T2 construct: Mouse vasa deferentia (MVD), CD-1 strain, Harlan, Raleigh, N.C.) were removed from mice; tissue Harlan, Raleigh, N.C; (animals); host or cells: mouse vas deferens, CD-1 strain
The experiment in a line: Mouse vas deferens, inhibition of electrically induced contractions, mu (with TIPP and nor-BNI). The data set is classed as cell-based. The note with it: in presence of 3 μM TIPP and 15 nM nor-BNI; read-out: Mouse Vas Deferens ED50 (nM) μ.

A further data set concerns beagle dogs. The experiment in a line: Emesis observation in beagle dogs, escalating i.v. doses. It counts as in vivo, dog. The settings on record: i.v. slow bolus, 0.1, 0.3 and 0.5 mg/kg. The source says: The following describes a procedure that provided observations on the emesis effects of (−)-3-((S)-((2S,5R)-4-allyl-2,5-dimethyl-1-piperazinyl)(3-thienyl)methyl)phenol (DPI-125). Three adult male beagle dogs were separately administered (−)-3-((S)-((2S,5R)-4-allyl-2,5-dimethyl-1-piperazinyl)(3-thienyl)methyl)phenol (DPI-125) in escalating dosages. Doses were chosen to produce blood levels consistent with strong to extreme analgesia and that would produce obvious pharmacological effects including lethargy and sedation. The compound was dissolved in sterile 5% dextrose solution that was buffered with acetic acid/sodium acetate buffer and administered intravenously in a slow bolus injection over 1-2 minutes. Firstly, the three dogs were administered test volume dosages of buffered 5% dextrose to ensure there was no reaction to the vehicle. Secondly, (−)3-((S)-((2S,5R)-4-allyl-2,5-dimethyl-1-piperazinyl)(3-thienyl)methyl)phenol (DPI-125) was administered in single injections at escalating dosages of 0.1, 0.3 and 0.5 mg/kg, with an intervening seven-day period before giving the next highest dose.

The target in another data set is T3, μ opioid receptor (Rattus norvegicus, UniProt P33535).
T3 construct: tissue Pel-Freeze Biological Inc. (Rogers, Ark.); host or cells: rat whole brain membranes
The experiment in a line: Radioligand binding, [3H]DAMGO competition, rat brain membranes. The method, then:
as §1, §2

For data set [2], the target named is T4, Delta receptor, mouse vas deferens (Mus musculus, UniProt P32300).
T4 construct: Mouse vasa deferentia (MVD), CD-1 strain, Harlan, Raleigh, N.C.) were removed from mice; tissue Harlan, Raleigh, N.C; (animals); host or cells: mouse vas deferens, CD-1 strain
Put plainly: Mouse vas deferens, inhibition of electrically induced contractions, delta. The note with it: read-out: Mouse Vas Deferens ED50 (nM) δ. It counts as cell-based. The method, then:
The compound of formula (I) and compounds 1, 3, 4, 5 and 6 as identified above, were evaluated for in vitro opioid receptor activity in various receptor systems, including mouse vas deferens (Mouse Vas Deferens ED50), and guinea pig ileum (Guinea Pig Ileum ED50). The assay procedures used for such determinations of receptor activity are set out below.
In vitro bioassays: Mouse vasa deferentia (MVD), CD-1 strain, Harlan, Raleigh, N.C.) were removed from mice and suspended between platinum electrodes with 0.5 g of tension in organ bath chambers containing a modified Mg^++ free Krebs buffer of the following composition (millimolar): NaCl, 117.5; KCl, 4.75; CaCl2, 2.6; KH2PO4, 1.20; NaHCO3, 24.5; and glucose, 11. The buffer was saturated with 95% O2/5% CO2 and kept at 37° C. Tissues were stimulated at supramaximal voltage with 10-Hz pulse trains for 400-msec.; train interval 10 seconds; and 1.0 msec pulse duration at maximal voltage. Delta receptor activity was determined by adding appropriate concentrations of test compound to organ baths and allowing a maximal response before addition of the next higher concentration.
The ED50 values were extrapolated from curves showing the dose concentration plotted against the response (J. A. H. Lord, A. A. Waterfield, J. Hughes, H. W. Kosterlitz, Nature 267, 495, (1977)).

The target of another data set is T5, δ opioid receptor (Rattus norvegicus, UniProt P33533).
T5 construct: tissue Pel-Freeze Biological Inc. (Rogers, Ark.); host or cells: rat whole brain membranes
The experiment in a line: Radioligand binding, [3H]Deltorphin II competition, rat brain membranes. The settings on record: read-out: Rat Brain Membrane K1 (nM) δ. As to the method:
as §1, §2

As to `C=CCN1C[C@H](C)N([C@H](c2ccsc2)c2cccc(O)c2)C[C@H]1C` [Compound 2, (−)3-((S)-((2S,5R)-4-allyl-2,5-dimethyl-1-piperazinyl)(3-thienyl)methyl)phenol], the Ki at κ opioid receptor came out at 1.77 nM; on μ opioid receptor (rat brain membranes, [3H]DAMGO, read-out: Rat Brain Membrane K1 (nM) μ), 0.4 nM; on δ opioid receptor it was 0.88 nM. For the same compound, the EC50 in data set [1] is 38.8 nM; in data set [2] it was 14.2 nM. Further, in the data set on beagle dogs, the “Retching or vomiting (emesis)” value is reported as “No retching or vomiting was observed”. Moreover, at μ opioid receptor (mu and delta receptor binding), the “K1 relative to the K1 of its enantiomer DPI-165” value was “approximately 1/1000”.
